Laboratory results taken from ChEMBL document CHEMBL1201862, “PubChem BioAssay data set” (2004).
Active and inactive are the calls of the source.

What was measured:
Insulin-degrading enzyme [1] = biological target: T1, Insulin-degrading enzyme (Homo sapiens, UniProt P14735); test: activators of recombinant IDE enzyme, dose response, counter-screen for IDE activator project, biochemical, fluorescence polarization (AID 588681)
T1 sequence (P14735 whole entry): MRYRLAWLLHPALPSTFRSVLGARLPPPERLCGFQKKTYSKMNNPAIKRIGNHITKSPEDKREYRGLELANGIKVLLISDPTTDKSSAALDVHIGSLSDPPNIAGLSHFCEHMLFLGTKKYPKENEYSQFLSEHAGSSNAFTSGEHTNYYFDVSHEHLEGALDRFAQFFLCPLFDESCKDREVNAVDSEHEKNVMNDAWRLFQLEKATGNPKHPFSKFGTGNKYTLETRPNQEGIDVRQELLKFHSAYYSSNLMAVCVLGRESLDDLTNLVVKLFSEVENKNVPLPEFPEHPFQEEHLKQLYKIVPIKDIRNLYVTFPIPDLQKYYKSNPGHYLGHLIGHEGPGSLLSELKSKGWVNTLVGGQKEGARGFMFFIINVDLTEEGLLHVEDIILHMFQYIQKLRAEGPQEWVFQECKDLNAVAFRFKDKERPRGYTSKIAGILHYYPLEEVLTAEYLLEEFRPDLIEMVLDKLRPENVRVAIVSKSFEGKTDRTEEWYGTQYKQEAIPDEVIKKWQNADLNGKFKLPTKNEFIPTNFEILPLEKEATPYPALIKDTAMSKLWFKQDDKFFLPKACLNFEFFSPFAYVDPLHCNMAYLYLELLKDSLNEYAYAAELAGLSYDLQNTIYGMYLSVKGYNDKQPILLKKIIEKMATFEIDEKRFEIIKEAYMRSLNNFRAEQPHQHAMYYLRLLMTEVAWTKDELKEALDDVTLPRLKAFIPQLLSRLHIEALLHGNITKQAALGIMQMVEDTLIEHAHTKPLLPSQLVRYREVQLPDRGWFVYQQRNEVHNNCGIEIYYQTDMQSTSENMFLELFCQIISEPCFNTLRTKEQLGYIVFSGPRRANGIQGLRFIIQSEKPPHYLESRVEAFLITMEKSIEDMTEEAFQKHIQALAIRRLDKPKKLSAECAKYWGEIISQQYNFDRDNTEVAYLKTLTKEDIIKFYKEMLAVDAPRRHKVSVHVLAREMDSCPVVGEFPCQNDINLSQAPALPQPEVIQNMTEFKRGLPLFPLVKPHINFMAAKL

Insulin-degrading enzyme [2] = biological target: T1, Insulin-degrading enzyme; test: activators of endogenous IDE in HEK cells, dose response, cell-based, fluorescence polarization (AID 588439); type: functional
HEK293 [3] = test: optical interference in Abeta FP readout, dose response, artefact control for IDE activator project, biochemical, fluorescence polarization (AID 588442); type: functional, cell-based; conditions: Homo sapiens
[4] = inhibitors of intracellular T. cruzi replication, confirmation, NIH3T3 host cells, beta-gal luminescence (AID 2044); type: functional, cell-based;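 also: intracellular parasites grown in NIH/3T3 mouse fibroblasts as host cells; luminescent beta-galactosidase reporter signal from transgenic T. cruzi replicating inside host cells; inhibitors lower the luminescence signal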
[5] = cytotoxicity toward NIH3T3 fibroblasts, dose response, counter-screen, cell-based, ATP luminescence, mouse fibroblasts (AID 2010); type: functional;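 also: cells exposed to compound for about 90 hours before reading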
HEK293 [6] = test: HEK cell cytotoxicity by LDH release, dose response, cytotoxicity control for IDE activator project, fluorescence, HEK cells (AID 588440); type: functional, cell-based; conditions: Homo sapiens;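 also: cytotoxicity by LDH release measuring loss of membrane integrity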
Vero = test: host cell cytotoxicity of antiviral hits, dose response, cytotoxicity control for West Nile virus antiviral project, secondary assay (AID 1650); type: functional; conditions: Chlorocebus sabaeus
[7] = biological target: Ras and Rab interactor 1/Tyrosine-protein kinase ABL1 (Homo sapiens, UniProt P00519+Q13671); type: functional;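 also: biochemical TR-FRET dose-response test measuring inhibition of binding between Rin1 and Abl proteins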
[8] = biological target: T2, Sentrin-specific protease 7 (Homo sapiens, UniProt Q9BQF6); test: SENP7 protease inhibitors, SAR follow-up, biochemical, luminescence (AID 504497); type: functional
T2 sequence (Q9BQF6 whole entry): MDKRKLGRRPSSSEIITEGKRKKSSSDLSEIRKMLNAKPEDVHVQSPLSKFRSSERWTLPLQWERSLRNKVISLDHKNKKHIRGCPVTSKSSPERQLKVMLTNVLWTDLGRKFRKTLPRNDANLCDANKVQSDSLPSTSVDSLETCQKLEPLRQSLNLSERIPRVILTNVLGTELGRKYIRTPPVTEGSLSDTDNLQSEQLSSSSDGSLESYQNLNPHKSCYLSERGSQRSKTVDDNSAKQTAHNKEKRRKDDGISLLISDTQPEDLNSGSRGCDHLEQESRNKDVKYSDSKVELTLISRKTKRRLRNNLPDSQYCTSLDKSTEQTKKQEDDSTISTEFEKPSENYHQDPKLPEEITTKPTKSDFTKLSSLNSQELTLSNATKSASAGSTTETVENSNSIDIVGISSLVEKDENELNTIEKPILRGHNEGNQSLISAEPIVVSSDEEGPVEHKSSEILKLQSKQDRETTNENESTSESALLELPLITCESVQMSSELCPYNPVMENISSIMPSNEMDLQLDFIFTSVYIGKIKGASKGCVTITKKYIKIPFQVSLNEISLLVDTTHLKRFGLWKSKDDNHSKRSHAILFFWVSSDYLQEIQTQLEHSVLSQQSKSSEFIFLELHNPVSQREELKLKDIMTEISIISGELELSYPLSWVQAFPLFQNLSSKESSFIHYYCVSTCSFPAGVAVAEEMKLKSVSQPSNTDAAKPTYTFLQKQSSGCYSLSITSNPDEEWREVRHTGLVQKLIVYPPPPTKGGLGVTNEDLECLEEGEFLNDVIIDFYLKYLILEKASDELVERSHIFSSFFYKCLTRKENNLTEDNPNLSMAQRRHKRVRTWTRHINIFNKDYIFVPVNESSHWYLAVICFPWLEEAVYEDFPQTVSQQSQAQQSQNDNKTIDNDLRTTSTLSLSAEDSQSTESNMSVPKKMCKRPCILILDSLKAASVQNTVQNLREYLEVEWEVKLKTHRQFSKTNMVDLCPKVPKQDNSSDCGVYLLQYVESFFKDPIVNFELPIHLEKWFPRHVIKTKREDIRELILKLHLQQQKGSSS

Caspase-3 [9] = biological target: T3, Caspase-3 (Homo sapiens, UniProt P42574); test: SAR Analysis of small molecule inhibitors of Sentrin-specific proteases (SENPs) using a Caspase-3 Selectivity assay. [Related pubchem assays (depositor defined):AID2540, AID2599, AID434973, AID489001]; type: functional
T3 sequence (P42574 whole entry): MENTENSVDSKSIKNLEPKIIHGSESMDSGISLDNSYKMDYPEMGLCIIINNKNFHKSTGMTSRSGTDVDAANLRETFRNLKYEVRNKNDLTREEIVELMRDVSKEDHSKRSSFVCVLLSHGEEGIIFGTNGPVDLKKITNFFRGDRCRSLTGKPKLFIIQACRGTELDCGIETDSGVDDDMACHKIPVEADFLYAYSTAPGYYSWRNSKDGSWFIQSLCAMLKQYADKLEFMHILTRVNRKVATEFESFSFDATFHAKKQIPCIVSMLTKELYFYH

Caspase-3 [10] = biological target: T3, Caspase-3; test: caspase-3 inhibitors as off-family protease, SAR follow-up, selectivity assay for SENP protease inhibitor project, biochemical, luminescence, set 2 (AID 588599); type: functional
[11] = biological target: T2, Sentrin-specific protease 7; test: SENP7 protease inhibitors, SAR follow-up, biochemical, luminescence, set 2 (AID 588600); type: functional
[12] = biological target: T4, Sentrin-specific protease 6 (Homo sapiens, UniProt Q9GZR1); test: SAR Analysis of small molecule inhibitors of Sentrin-specific protease 6 (SENP6) using a Luminescent assay. [Related pubchem assays (depositor defined):AID2582, AID2599]; type: functional
T4 sequence (Q9GZR1 whole entry): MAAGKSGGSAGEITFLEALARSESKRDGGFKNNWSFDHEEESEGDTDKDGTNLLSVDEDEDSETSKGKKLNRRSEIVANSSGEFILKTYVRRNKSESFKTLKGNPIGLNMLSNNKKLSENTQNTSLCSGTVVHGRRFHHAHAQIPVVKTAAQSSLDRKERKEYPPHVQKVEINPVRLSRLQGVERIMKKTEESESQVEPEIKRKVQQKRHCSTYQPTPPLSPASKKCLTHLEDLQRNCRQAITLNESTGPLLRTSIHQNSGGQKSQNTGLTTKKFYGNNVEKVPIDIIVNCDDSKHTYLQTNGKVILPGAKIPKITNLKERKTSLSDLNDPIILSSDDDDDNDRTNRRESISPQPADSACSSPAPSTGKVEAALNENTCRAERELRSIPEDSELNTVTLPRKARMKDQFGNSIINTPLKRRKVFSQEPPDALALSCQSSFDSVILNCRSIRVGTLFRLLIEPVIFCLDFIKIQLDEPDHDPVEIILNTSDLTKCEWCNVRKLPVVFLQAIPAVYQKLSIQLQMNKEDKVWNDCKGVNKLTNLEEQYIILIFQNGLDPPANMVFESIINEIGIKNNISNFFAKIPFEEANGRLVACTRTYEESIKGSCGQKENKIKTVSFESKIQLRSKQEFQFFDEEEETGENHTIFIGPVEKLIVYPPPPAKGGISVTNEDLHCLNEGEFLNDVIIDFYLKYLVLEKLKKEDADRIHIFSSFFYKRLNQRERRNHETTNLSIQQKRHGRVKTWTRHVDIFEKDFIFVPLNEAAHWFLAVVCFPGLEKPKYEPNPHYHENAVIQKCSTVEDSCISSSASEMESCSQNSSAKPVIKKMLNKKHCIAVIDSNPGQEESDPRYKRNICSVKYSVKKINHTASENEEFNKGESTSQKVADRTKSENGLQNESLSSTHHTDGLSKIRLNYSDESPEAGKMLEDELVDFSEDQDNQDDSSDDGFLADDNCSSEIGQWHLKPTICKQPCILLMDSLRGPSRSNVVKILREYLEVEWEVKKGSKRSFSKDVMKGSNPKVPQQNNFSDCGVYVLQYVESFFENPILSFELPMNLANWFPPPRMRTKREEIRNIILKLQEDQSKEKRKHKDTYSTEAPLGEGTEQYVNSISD

[13] = biological target: T5, Sentrin-specific protease 8 (Homo sapiens, UniProt Q96LD8); test: SENP8 protease inhibitors, SAR follow-up, biochemical, luminescence (AID 504501); type: functional
T5 sequence (Q96LD8 whole entry): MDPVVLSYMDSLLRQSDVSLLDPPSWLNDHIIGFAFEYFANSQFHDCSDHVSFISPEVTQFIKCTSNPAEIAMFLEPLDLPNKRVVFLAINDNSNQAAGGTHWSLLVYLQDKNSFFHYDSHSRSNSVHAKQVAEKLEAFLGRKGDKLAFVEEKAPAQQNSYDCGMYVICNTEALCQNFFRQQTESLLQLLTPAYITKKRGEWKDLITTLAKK

[14] = biological target: T4, Sentrin-specific protease 6; test: SENP6 protease inhibitors, SAR follow-up, biochemical, luminescence, set 2 (AID 588598); type: functional
[15] = biological target: T5, Sentrin-specific protease 8; test: SENP8 protease inhibitors, SAR follow-up, biochemical, luminescence, set 2 (AID 588601); type: functional
[16] = biological target: Melanin-concentrating hormone receptor 1 (Homo sapiens, UniProt Q99705); test: Late-stage fluorescence-based counterscreen for antagonists of the G-protein coupled receptor 7 (GPR7): cell-based dose response assay to identify antagonists of the melanin-concentrating hormone receptor 1 (MCHR1) Set 6.; type: functional
[17] = biological target: T6, Neuropeptides B/W receptor type 1 (Homo sapiens, UniProt P48145); test: GPR7 antagonist potency, late-stage follow-up, cell-based, fluorescence, dose response, set 6 (AID 588583); type: functional
T6 sequence (P48145 whole entry): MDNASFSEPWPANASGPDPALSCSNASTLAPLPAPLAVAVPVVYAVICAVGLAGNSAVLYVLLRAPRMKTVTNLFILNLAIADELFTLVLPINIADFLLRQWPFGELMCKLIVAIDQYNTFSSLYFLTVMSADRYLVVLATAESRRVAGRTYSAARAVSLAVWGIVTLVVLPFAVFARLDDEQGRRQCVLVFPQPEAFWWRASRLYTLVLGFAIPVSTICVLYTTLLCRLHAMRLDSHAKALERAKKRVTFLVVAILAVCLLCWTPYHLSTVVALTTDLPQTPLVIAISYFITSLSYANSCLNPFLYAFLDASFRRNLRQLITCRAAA

Melanin-concentrating hormone receptor 1, sequence (Q99705 whole entry): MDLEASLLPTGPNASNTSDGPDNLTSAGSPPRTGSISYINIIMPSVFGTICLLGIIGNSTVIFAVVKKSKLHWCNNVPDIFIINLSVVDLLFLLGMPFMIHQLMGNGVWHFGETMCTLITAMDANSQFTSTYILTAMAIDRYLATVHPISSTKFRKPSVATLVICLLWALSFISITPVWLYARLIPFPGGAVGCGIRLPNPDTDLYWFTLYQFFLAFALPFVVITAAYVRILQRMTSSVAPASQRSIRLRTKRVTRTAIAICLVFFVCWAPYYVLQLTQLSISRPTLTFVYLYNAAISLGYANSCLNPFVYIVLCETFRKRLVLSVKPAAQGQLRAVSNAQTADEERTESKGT
Ras and Rab interactor 1/Tyrosine-protein kinase ABL1, sequence (P00519 whole entry): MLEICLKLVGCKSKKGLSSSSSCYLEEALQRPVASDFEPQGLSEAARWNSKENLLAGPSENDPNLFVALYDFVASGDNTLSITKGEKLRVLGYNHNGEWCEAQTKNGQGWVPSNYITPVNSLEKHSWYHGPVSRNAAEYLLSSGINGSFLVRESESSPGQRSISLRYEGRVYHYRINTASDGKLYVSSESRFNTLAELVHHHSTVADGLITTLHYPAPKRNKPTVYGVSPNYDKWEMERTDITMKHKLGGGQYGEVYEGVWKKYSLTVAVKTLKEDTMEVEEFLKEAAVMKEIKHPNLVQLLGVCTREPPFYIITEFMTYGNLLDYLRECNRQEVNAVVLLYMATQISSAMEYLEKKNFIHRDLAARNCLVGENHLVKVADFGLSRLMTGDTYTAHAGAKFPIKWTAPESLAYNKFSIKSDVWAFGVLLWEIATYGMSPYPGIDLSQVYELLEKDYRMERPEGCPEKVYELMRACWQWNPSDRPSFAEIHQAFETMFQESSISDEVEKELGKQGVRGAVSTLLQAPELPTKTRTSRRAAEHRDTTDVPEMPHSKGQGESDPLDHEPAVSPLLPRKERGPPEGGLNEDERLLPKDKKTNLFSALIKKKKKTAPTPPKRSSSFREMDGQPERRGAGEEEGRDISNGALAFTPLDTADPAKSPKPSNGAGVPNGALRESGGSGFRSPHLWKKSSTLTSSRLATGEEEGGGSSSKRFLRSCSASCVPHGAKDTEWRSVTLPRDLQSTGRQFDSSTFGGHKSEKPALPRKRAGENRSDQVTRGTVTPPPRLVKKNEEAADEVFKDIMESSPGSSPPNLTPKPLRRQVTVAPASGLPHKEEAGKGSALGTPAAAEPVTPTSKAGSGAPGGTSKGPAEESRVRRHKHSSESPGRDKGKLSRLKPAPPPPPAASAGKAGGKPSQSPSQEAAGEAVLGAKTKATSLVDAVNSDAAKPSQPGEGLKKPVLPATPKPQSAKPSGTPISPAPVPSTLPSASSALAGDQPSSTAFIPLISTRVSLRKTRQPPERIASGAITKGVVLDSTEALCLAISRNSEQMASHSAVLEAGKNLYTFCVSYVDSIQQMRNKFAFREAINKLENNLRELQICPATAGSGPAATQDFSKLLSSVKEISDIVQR
Ras and Rab interactor 1/Tyrosine-protein kinase ABL1, sequence (Q13671 whole entry): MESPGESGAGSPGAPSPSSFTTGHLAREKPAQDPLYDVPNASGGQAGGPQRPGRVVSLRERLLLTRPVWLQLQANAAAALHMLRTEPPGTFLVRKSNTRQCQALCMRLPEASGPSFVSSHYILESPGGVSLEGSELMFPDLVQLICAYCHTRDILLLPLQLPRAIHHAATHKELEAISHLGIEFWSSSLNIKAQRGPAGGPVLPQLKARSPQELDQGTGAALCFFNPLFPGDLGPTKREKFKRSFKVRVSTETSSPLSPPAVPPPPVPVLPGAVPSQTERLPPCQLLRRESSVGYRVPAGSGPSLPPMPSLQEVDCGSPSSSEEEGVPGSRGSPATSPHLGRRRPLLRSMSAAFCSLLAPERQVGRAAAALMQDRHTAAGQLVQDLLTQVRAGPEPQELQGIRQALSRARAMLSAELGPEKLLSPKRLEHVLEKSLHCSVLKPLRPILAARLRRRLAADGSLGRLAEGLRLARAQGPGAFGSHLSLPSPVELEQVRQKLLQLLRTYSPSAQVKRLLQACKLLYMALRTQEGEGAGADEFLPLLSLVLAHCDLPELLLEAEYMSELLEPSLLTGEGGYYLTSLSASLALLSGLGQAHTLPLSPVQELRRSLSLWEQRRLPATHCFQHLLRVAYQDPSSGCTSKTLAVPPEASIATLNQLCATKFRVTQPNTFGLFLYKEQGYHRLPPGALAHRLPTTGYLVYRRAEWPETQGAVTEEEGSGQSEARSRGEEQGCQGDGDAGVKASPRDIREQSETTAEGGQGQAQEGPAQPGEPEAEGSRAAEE

| SMILES | IC50 (Caspase-3 [10]) | IC50 [11] | IC50 [14] | IC50 [15] | IC50 [16] | IC50 [17] | further results |
| --- | --- | --- | --- | --- | --- | --- | --- |
| CCN1CCN(c2cc(C)c3cc(NC(=S)N4CCN(c5ccccc5)CC4)ccc3n2)CC1 |  |  |  |  |  |  | EC50 (Insulin-degrading enzyme [1]): > 54.7 µM (inactive); EC50 (Insulin-degrading enzyme [2]): > 54.7 µM (inactive); EC50 (HEK293 [3]): > 54.7 µM (inactive); EC50 [4]: 1.79 µM (active); EC50 [5]: > 60 µM (not active); IC50 (HEK293 [6]): > 89.2 µM (inactive); CC50 (Vero): 19.5 µM (active) |
| O=C(CC1SCCNC1=O)Nc1cc(Cl)cc(Cl)c1 (centres undefined) |  |  |  |  |  |  | IC50 [7]: 26.4 µM (inactive) |
| O=C(Nc1nc2ccccc2s1)c1nccs1 | 1.01 µM (active) | 1.54 µM (active) | 1.49 µM (active) | 1.55 µM (active) |  |  | IC50 [8]: 1.4 µM (active); IC50 (Caspase-3 [9]): 900 nM (active); IC50 [12]: 2.1 µM (active); IC50 [13]: 2.1 µM (active) |
| CCN(C(=O)c1cc(S(=O)(=O)N(CC)CC)ccc1C)c1nc2ccccc2s1 | > 99 µM (inactive) | > 99 µM (inactive) | > 99 µM (inactive) | > 99 µM (inactive) |  |  |  |
| Cc1cc(C(C#N)c2c(Cl)cnn(Cc3cccc4ccccc34)c2=O)on1 (centres undefined) |  |  |  |  | 0.136 µM (active) | 0.136 µM (active) |  |
| O=c1c(-c2ccccc2)c(Br)cnn1Cc1cccc2ccccc12 |  |  |  |  | 12 µM (inactive) | 12 µM (inactive) |  |
